Measured values as given in the NIST ThermoML archive (doi:10.1021/je060001s).
Numbers after ± are expanded uncertainties.

Legend:
[1] = refractive index (Na D-line) (dimensionless); conditions: 298.15 K; 101.33 kPa; Liquid; Standard Abbe refractometry
[2] = 298.15 K; 101.33 kPa; Liquid

**Q.** For `CCCCC(=O)OC` [methyl pentanoate], which refractive index [1] is on record?
**A.** Its refractive index is 1.3971 ± 0.0004.

**Q.** What about the mass density [2] of the same compound?
**A.** Its mass density is 884.8 ± 0.38 kg/m3.

**Q.** Which results are given for `CC#N` [acetonitrile]?
**A.** refractive index [1]: 1.3418 ± 0.0004; mass density [2]: 776.62 ± 0.52 kg/m3

**Q.** With `CCCCCC(=O)OC` [methyl hexanoate] as the compound, how does the refractive index [1] read?
**A.** The refractive index was 1.4048 ± 0.0004.

**Q.** What about the mass density [2] of the same compound?
**A.** The mass density was 879.47 ± 0.39 kg/m3.

**Q.** Which refractive index [1] does the source give for `CCCC(=O)OC` [methyl butanoate] here?
**A.** Its refractive index is 1.3847 ± 0.0004.

**Q.** What about the mass density [2] of the same compound?
**A.** Its mass density is 892.16 ± 0.37 kg/m3.
